Earlier results, collected in US20220117866A1, “ANHYDROUS ALCOHOL-FREE SILKY FRAGRANCE FORMULATION” (AKI, Inc., priority 2020, published 2022).
Structures can show the parent of a compound that is named as a salt.

Test system: laboratory animals
Details: oral, dermal and inhalation routes

With `CCOC(=O)CC(O)(CC(=O)OCC)C(=O)OCC` [Triethyl Citrate, Triethyl 2-hydroxypropane-1,2,3-tricarboxylate] as the compound, how does the acute toxicity read?
The acute toxicity was “low”.
